Test results: patent US7771978B2, “β1,4mannosyltransferases” (priority 2003, dated 2010)
Read-outs that look alike come from different tables or passages of the source.

T1: Egghead β1-4-mannosyltransferase (Drosophila melanogaster, UniProt O01346)
T1 construct: a secreted version of egghead was prepared as described for the full length construct; made in house; host or cells: baculovirus-infected Sf9 and High Five insect cells (microsomal fractions)
T1 sequence (O01346 1-457): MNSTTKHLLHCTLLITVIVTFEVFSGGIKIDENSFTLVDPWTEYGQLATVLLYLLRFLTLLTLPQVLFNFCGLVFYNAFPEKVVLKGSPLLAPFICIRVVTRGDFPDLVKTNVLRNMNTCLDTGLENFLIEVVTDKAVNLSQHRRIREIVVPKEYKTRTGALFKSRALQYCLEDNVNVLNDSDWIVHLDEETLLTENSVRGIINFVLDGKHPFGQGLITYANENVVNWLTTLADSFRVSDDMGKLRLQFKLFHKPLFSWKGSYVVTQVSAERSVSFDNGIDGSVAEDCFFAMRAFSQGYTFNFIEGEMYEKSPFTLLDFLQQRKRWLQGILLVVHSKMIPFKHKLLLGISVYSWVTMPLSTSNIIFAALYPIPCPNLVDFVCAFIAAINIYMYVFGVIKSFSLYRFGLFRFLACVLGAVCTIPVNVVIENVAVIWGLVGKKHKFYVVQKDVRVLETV

B1: egghead: GDP-D-mannose: β-D-glucose-R 4-β-D-mannosyltransferase, SEQ ID NO. 1 (protein)
chain: T1 sequence (O01346 1-457)
modifications: Drosophila melanogaster

Target: T1, Egghead β1-4-mannosyltransferase
Experiment: Egghead mannosyltransferase enzyme assay with soluble acceptor and donor substrates (microsomal fractions)
Format: biochemical
Details: for effect of divalent cation salt on enzyme activity: addition of 5 to 10 mM; for acceptor substrate activity (in words): microsomal fractions of High Five cells; for Substrate specificities of Egghead β1-4-mannosyltransferase, activity at 1 mM: acceptor substrate 1 mM; for Substrate specificities of Egghead β1-4-mannosyltransferase, activity at 1 mM / Substrate specificities of Egghead β1-4-mannosyltransferase, activity at 5 mM: microsomes of pVL-Egghead infected High Five cells, GalNAc-T4 background subtracted; for Substrate specificities of Egghead β1-4-mannosyltransferase, activity at 5 mM: acceptor substrate 5 mM; for donor substrate utilisation by egghead (in words): donor sugar nucleotides tested under similar conditions
Method: Initial assays of activity included a screen with high concentrations of monosaccharide substrates and different donor substrates.
An expression construct of the full coding region of egghead was prepared by RT-PCR using D. melanogaster mRNA and the sense primer Egh001 (5′-[…]-3′, SEQ ID NO: 4) with a BglII restriction site and the anti-sense primer Egh002 (5′-[…]-3′, SEQ ID NO: 5) with a XbaI restriction site. The resulting 1.1 Kb fragment was cloned into the BglII/XbaI sites of pVL1393 (PharMingen) and pVL1393-MYC. Furthermore an expression construct for a secreted version of egghead was prepared as described for the full length construct but using sense primer Egh003 (5′[…]-3′, SEQ ID NO: 6) with a BglII restriction site and the anti-sense primer Egh002. The resulting 1 Kb fragment was cloned into pAcGP67 Baculo-virus expression vector. Expression constructs pVL-egghead-full and pVL-egghead-Myc-full and pAcGP67-egghead-sol were co-transfected with Baculo-Gold™ DNA (Pharmingen) in Sf9 cells as described (12). Control constructs included pVL-GalNAc-T4-full (8) and pVL-brainiac-full (7). Standard enzyme assays were performed in 50 μl reaction mixtures containing 25 mM HEPES-KOH (pH 7.4), 10 mM MgCl2, 0.1% n-octylgalactoside (Sigma), and 100 μM GDP-[^14C]-Man (2,000 cpm/nmol) (Amersham), and varying concentration of acceptor substrates (purchased from Fluka, Merck, Sigma and Toronto Research Chemicals Inc; see Table I for structures). Assays with brainiac were carried out in the same reaction mixture except for addition of UDP-[^14C]GlcNAc (3,000 cpm/nmol) (Amersham) and MnCl2. Enzyme sources were microsomal fractions of baculo-virus infected Sf9 and High Five™ cells prepared essentially as described by Weis et al. (1998). Briefly, cells were lysed in lysis buffer (25 mM Tris-HCl pH 7.4, 250 mM Sucrose), after incubation 30 min on ice cells were homogenized and lysate centrifuged at 1000×G. Glycerol were added to 20% and membrane pellets were obtained by 100.000×g. Pellets were used at 10 mg/ml (Protein concentration determined by BCA, Pierce). Reaction products of soluble acceptors were quantified by chromatography on Dowex AG1-X8 (Sigma). Assays with glycosphingolipids included 5 mM 2-Acetamido-2-deoxy-D-Glucono-1,5-lactone (inhibitor of hexosaminidase activity), and products were purified on octadecyl-silica cartridges (Supelco) and analyzed by high performance thin-layer chromatography followed by autoradiography.

[1] = acceptor substrate, GDP-Man donor, read-out: apparent Km of acceptor substrate

Molecule	Substrate specificities of Egghead β1-4-mannosyltransferase, activity at 1 mM (GDP-Man donor) [nmol/h/mg]	Substrate specificities of Egghead β1-4-mannosyltransferase, activity at 5 mM (GDP-Man donor) [nmol/h/mg]	also measured
C[C@H](CCC(=O)NCCC[N+](C)(C)CCCS(=O)(=O)[O-])[C@H]1CC[C@H]2[C@@H]3[C@H](O)C[C@@H]4C[C@H](O)CC[C@]4(C)[C@H]3C[C@H](O)[C@]12C [CHAPS]	–	–	effect of CHAPS on egghead activity (concentration not given, to a lesser extent than n-octylgalactoside): activated
[Ca+2].[Cl-].[Cl-] [CaCl2]	–	–	effect of divalent cation salt on enzyme activity: had no effect
O=C[C@H](O)[C@@H](O)[C@H](O)[C@H](O)CO [D-Glucose]	–	–	acceptor substrate activity (in words) (GDP-Man donor): marked increase in GDP-Man transferase activity
C[C@@H]1O[C@H](Oc2ccc([N+](=O)[O-])cc2)[C@@H](O)[C@H](O)[C@@H]1O [Fucβ1-pNph]	0.0	0.0	–
Nc1nc2c(ncn2[C@@H]2O[C@H](COP(=O)(O)OP(=O)(O)O[C@H]3O[C@H](CO)[C@@H](O)[C@H](O)[C@@H]3O)[C@@H](O)[C@H]2O)c(=O)[nH]1 [GDP-Man, GDP-mannose]	–	–	Km (donor substrate, with n-octyl-β-Glc acceptor substrate, read-out: apparent Km for GDP-Man): 58 ± 6.2 µM; donor substrate utilisation by egghead (in words): strict donor substrate specificity
CC(=O)N[C@H]1[C@H](Oc2ccc([N+](=O)[O-])cc2)O[C@H](CO)[C@H](O)[C@@H]1O [GalNAcβ1-pNph]	0.0	–	–
Cc1cc(=O)oc2cc(O[C@@H]3O[C@H](CO)[C@H](O)[C@H](O)[C@H]3O)ccc12 [Galβ1-MeUmb]	0.0	–	–
CCCCCCCCO[C@@H]1O[C@H](CO)[C@H](O)[C@H](O)[C@H]1O [Galβ1-n-Octyl]	0.0	0.0	–
O=[N+]([O-])c1ccc(O[C@@H]2O[C@H](CO)[C@H](O)[C@H](O)[C@H]2O)cc1 [Galβ1-pNph]	0.0	–	–
CC(=O)N[C@H]1[C@H](Oc2ccc3c(C)cc(=O)oc3c2)O[C@H](CO)[C@@H](O)[C@@H]1O [GlcNAcβ1-MeUmb]	0.2	0.0	–
CC(=O)N[C@H]1[C@H](Oc2ccc([N+](=O)[O-])cc2)O[C@H](CO)[C@@H](O)[C@@H]1O [GlcNAcβ1-pNph]	0.0	–	–
Cc1cc(=O)oc2cc(O[C@@H]3O[C@H](CO)[C@@H](O)[C@H](O)[C@H]3O)ccc12 [Glcα1-MeUmb]	1.2	12.9	–
CCCCCCCCO[C@H]1O[C@H](CO)[C@@H](O)[C@H](O)[C@H]1O [Glcα1-n-Octyl]	3.6	6.5	–
Cc1cc(=O)oc2cc(O[C@@H]3O[C@H](CO)[C@@H](O)[C@H](O)[C@H]3O)ccc12 [Glcβ1-MeUmb]	330.0	611.4	–
[2H]C([2H])([2H])C([2H])([2H])C([2H])([2H])C([2H])([2H])C([2H])([2H])C([2H])([2H])C([2H])([2H])C([2H])([2H])OC1([2H])O[C@]([2H])(C([2H])([2H])O)[C@@]([2H])(O)[C@]([2H])(O)[C@@]1([2H])O (stereo partly drawn) [Glcβ1-n-Octyl, n-octyl-β-glucoside]	442.8	732.6	–
CCCCCCCCOC1O[C@H](CO)[C@@H](O)[C@H](O)[C@H]1O (stereo partly drawn) [Glcβ1-n-Octyl, n-octyl-β-glucoside]	–	–	Km [1]: 670 ± 80 µM
O=[N+]([O-])c1ccc(O[C@@H]2O[C@H](CO)[C@@H](O)[C@H](O)[C@H]2O)cc1 [Glcβ1-pNph]	378.6	561.4	Km [1]: 1100 ± 300 µM
OC[C@H]1O[C@H](OCc2ccccc2)[C@@H](O)[C@@H](O)[C@@H]1O [Manα-1-Bzl]	0.0	–	–
CC(=O)N[C@H]1C(O)O[C@H](CO)[C@@H](O[C@@H]2O[C@H](CO)[C@@H](O)[C@H](O)[C@@H]2O)[C@@H]1O (some centres unmarked) [Manβ1-4GlcNAc]	0.0	0.0	acceptor substrate activity (in words) (GDP-Man donor): no activity
CCCCCCCCO[C@@H]1O[C@H](CO)[C@@H](O[C@@H]2O[C@H](CO)[C@@H](O)[C@H](O)[C@@H]2O)[C@H](O)[C@H]1O [Manβ1-4Glcβ1-n-Octyl]	0.0	0.0	acceptor substrate activity (in words) (GDP-Man donor): no activity
Cc1cc(=O)oc2cc(O[C@@H]3O[C@H](CO)[C@@H](O)[C@H](O)[C@@H]3O)ccc12 [Manβ1-MeUmb]	97	171.4	–
O=[N+]([O-])c1ccc(O[C@@H]2O[C@H](CO)[C@@H](O)[C@H](O)[C@@H]2O)cc1 [Manβ1-pNph]	98.6	182.9	Km [1]: 2300 ± 500 µM
[Cl-].[Cl-].[Mg+2] [MgCl2]	–	–	effect of divalent cation salt on enzyme activity: activated
[Cl][Mn][Cl] [MnCl2]	–	–	effect of divalent cation salt on enzyme activity: activated
CC(=O)N[C@H]1[C@@H](OP(=O)(O)OP(=O)(O)OC[C@H]2O[C@@H](n3ccc(=O)[nH]c3=O)[C@H](O)[C@@H]2O)O[C@H](CO)[C@H](O)[C@@H]1O [UDP-GalNAc]	–	–	donor substrate utilisation by egghead (in words): did not utilize
CC(=O)N[C@H]1[C@@H](OP(=O)(O)OP(=O)(O)OC[C@H]2O[C@@H](n3ccc(=O)[nH]c3=O)[C@H](O)[C@@H]2O)O[C@H](CO)[C@@H](O)[C@@H]1O [UDP-GlcNAc]	–	–	donor substrate utilisation by egghead (in words): did not utilize
Cc1cc(=O)oc2cc(O[C@@H]3OC[C@@H](O)[C@H](O)[C@H]3O)ccc12 [Xylβ1-MeUmb]	0.0	–	–
CCCCCCCCO[C@@H]1O[C@H](CO)[C@H](O)[C@H](O)[C@H]1O [n-octylgalactoside]	–	–	effect of n-octylgalactoside on egghead activity (3.4 mM (0.1%), microsomal membranes): activated
Triton X-100	–	–	effect of detergent on egghead activity (detergent at 0.1%, microsomal membranes): inhibited
B1	–	–	pH optimum of egghead activity (microsomal membranes): 7-8 pH
